Key:
TNF-α = assay: In vitro LPS stimulation of human PBMC for the release of TNF-α, sandwich ELISA; type: cell-based; details: FIG. 4C
Method: Human PBMC, at 100,000 cell per well, were stimulated with 1×10^−5 μg/ml LPS E. coli strain 055:B5. Following culture for 24 hours the cell culture supernatants were collected and tested for TNF-α levels by ‘sandwich’ ELISA similarly described above for the IL-2 detection assay.

[1] = system: Human peripheral blood mononuclear cells (PBMC); assay: In vitro proliferation assay of ConA-stimulated human PBMC (3H-thymidine); type: cell-based; details: ConA 1 μg/ml, 0.78125 to 100 μM; FIG. 4A
Method: (§1) Human peripheral blood mononuclear cells (PBMC) were isolated from heparinised whole blood by buoyant density centrifugation over Histopague 1077 (Sigma, Poole, UK) 600 g for 20 minutes. PBMC harvested from the ‘buffy’ layers were washed and then aliquoted into 96-well plates at 100,000 per well. PBMC were exposed to bacterial quorum sensing molecules (PQS or OdDHL) at concentrations ranging from 0.78125 to 100 μM and then stimulated with 1 μg/ml of Concanavalin A (ConA). After an overnight culture 50 μl of the culture supernatant was removed for the detection of IL-2 released by ‘sandwich’ ELISA. The cells were returned to culture for another 24 hours before 0.25 μCi per well of ^3H-thymidine was added. Following an 18-hour pulse the human PBMC were harvested onto fibreglass filters which were then counted in the presence of MicroScint-O with the Packard TopCount scintillation counter.

IL-2 = IL-2 release from ConA-stimulated human PBMC, sandwich ELISA; type: cell-based; details: ConA 1 μg/ml, culture supernatant, FIG. 4B
Method: as §1, with “The cells were returned to culture for another 24 hours before 0.25 μCi per well of ^3H-thymidine was added.” left out
Human leucocytes when stimulated with ConA released the cytokine IL-2. The levels of cytokine produced in the culture supernatants after 24 h were determined in a ‘sandwich’ ELISA. […] Following four washes, the bound biotinylated antibody was detected with 50 μl of a 1:1,000 dilution of Streptavidin-peroxidase (BD Pharmingen, UK). […] The enzyme reaction was stopped with 50 μl of 2.5 M H2SO4 after a development of 10 minutes at room temperature and the development was read at 450 nm with a spectrophotometric 96-well plate reader.

Mono Mac 6 cells = assay: Mono Mac 6 cellular viability by MTS conversion to formazan; type: cell-based, human; details: Mono Mac 6, 100,000 cells per well, overnight exposure, 3.90625 to 500 μM; FIG. 2, 3
Method: The human monocytic cell line, Mono Mac 6, was treated with concentrations of bacterial quorum sensing molecules 2-heptyl-3-hydroxy-4(1H)quinolone (PQS), N-(3-oxododecanoyl)-L-homoserine lactone (OdDHL) and N-(3-oxohexanoyl)-L-homoserine lactone. Cells at 100,000 per well were exposed to quorum sensing molecules ranging from 3.90625 to 500 μM after which the cells were stimulated with 10 ng/ml E. coli LPS and 5 ng/ml phorbol-myristrate acetate to induce the overnight release of TNF-αinto the culture media. A tetrazolium compound (3-(4,5-dimethylthazol-2-yl)-5-(3-carboxymethoxyphenyl)-2-(4-sulfophenyl)-2H-tetrazolium, inner salt MTS was added to the cells to determine cellular viability after treatment with the quorum sensing molecules. MTS is bioreduced by cells into a formazan product that is soluble in tissue culture medium. The production of formazan was determined by measuring the absorbance of the compound at 450 nm. The results are shown in FIG. 2. A titration of cell numbers was included to correlate to the number of viability cells in the treated wells as set out in the table below.

murine splenocytes = assay: ConA mitogen-stimulated proliferation of murine splenocytes ([3H]-thymidine incorporation); type: cell-based, mouse (BALB/c); details: ConA 1 μg/ml, 100,000 spleen cells, compound about 10 to 0.2 μM; FIG. 1
Method: 1. ConA Mitogen-Stimulated Proliferation of Murine Splenocytes
The concanavalin A (ConA) cell proliferation assay was used to assess the effect of the title compound on T-cell activation and proliferation. Proliferation was assessed by the incorporation of [^3H]-thymidine into DNA. Eight-week-old female BALB/c mice were obtained from Harlan (Bicester, Oxon, UK) and given food and water ad libitum. Splenocyte suspensions were prepared by removing the spleens and placing them into RPMI 1640 medium. The spleens were forced through 70 μm pore size wire gauzes using the plunger from a 5 ml syringe to produce a single cell suspension. The cells were pelleted by centrifugation, and erythrocytes were lysed with 0.017M Tris, 0.144M ammonium chloride buffer, pH 7.2. Leucocytes were washed twice with RPMI 1640 medium with 2% (vol/vol) foetal calf serum (FCS) and resuspended in complete cell culture medium (CTCM) consisting of RPMI 1640 medium with 5% FCS, 2 mM L-glutamine, and 5×10−5 M 2-mercaptoethanol. The title compound was tested at doubling down dilutions ranging from about 10 to 0.2 μM in a final volume of 200 μl of CTCM, containing ConA (Sigma, Poole, UK) at 1 μg/ml and 100,000 spleen cells. […] After the addition of 25 μl of MicroScint-O (Packard) to each well the filters were counted with the Packard TopCount scintillation counter. […]

| Structure (SMILES) | TNF-α production (TNF-α; LPS E. coli 055:B5, 24 hours) | human PBMC cell proliferation [1] | IL-2 secretion (IL-2) | cell viability, as adjudged by MTS conversion (Mono Mac 6 cells) | TNF-α production at high dose (TNF-α; LPS-stimulated, high dose) | TNF-α production at low dose (TNF-α; LPS-stimulated, low dose) | splenocyte proliferation (counts per minute, [3H]-thymidine incorporation) (murine splenocytes) |
| --- | --- | --- | --- | --- | --- | --- | --- |
| CCCCCCCCCC(=O)CC(=O)N[C@H]1CCOC1=O [OdDHL, N-(3-oxododecanoyl)-L-homoserine lactone] | inhibits | inhibits | inhibits | – | – | – | – |
| CCCCCCCc1[nH]c2ccccc2c(=O)c1O [PQS, 2-heptyl-3-hydroxy-4(1H)quinolone] | – | – | – | no effect | may enhance | no effect | inhibits |
